Some test systems named below: T-47D breast; HS 578T breast; HT29 colon; TK-10 renal; 786-0 renal; SN12C renal; SNB-19 CNS; MALME-3M melanoma; SR leukemia; SK-OV-3 ovarian.
Experiment in all cases: NCI tumour cell line growth inhibition, 48 h

The text below walks through data of PubChem BioAssay (NCI).

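Briefly, cells in 96-well plates were exposed to five compound concentrations for 48 h, and endpoints were estimated by linear interpolation. GI50 = concentration required for 50% inhibition of growth. At the TGI there is no net growth.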

In the case of `Nc1ncnc2c1c(-c1ccc(Oc3ccccc3)cc1)nn2C[C@@H]1SSC[C@H]1O`, the GI50 is 1090 nM with T-47D breast; 2960 nM in the assay with HS 578T breast; 732 nM in the assay on HT29 colon; 1.49 µM in the assay on TK-10 renal; 2410 nM in the assay on 786-0 renal; 2310 nM in the assay with SN12C renal. The GI50 in the assay on SNB-19 CNS was 2880 nM; in the assay on MALME-3M melanoma it was 1250 nM; in the assay with SR leukemia it was 163 nM; in the assay with SK-OV-3 ovarian, 0.92 µM. The TGI in the assay with T-47D breast was determined as 10.3 µM; in the assay with HS 578T breast, 11.2 µM; in the assay on HT29 colon it was 7.98 µM; with TK-10 renal it was 3.16 µM; with 786-0 renal, 8.31 µM; with SN12C renal it was 10.2 µM. Also, the TGI in the assay on SNB-19 CNS came to 13.3 µM; with MALME-3M melanoma, 6.45 µM; in the assay with SR leukemia it was 11.8 µM; in the assay on SK-OV-3 ovarian it was 4.33 µM.
As to `COc1ccc(/C=C(\C(=O)NCc2cccnc2)S(=O)(=O)c2ccccc2)cc1OC`, the GI50 was 2590 nM with T-47D breast; 3410 nM in the assay with HS 578T breast; 3450 nM in the assay with HT29 colon; 5.57 µM with TK-10 renal; 2860 nM in the assay on 786-0 renal; 2490 nM in the assay with SN12C renal. In addition, the GI50 is 3690 nM in the assay with SNB-19 CNS, 3060 nM in the assay with MALME-3M melanoma, 3300 nM in the assay with SR leukemia and 4.1 µM with SK-OV-3 ovarian. The TGI in the assay on T-47D breast amounted to 10.8 µM; with HS 578T breast it was 26.3 µM; with HT29 colon it was 14.8 µM; in the assay on TK-10 renal it was 18.1 µM; in the assay with 786-0 renal, 8.92 µM; in the assay with SN12C renal it was 9.15 µM. Further, the TGI in the assay with SNB-19 CNS is 13.1 µM; in the assay on MALME-3M melanoma it was 11.9 µM; in the assay with SR leukemia, greater than 100 µM; in the assay with SK-OV-3 ovarian, 13.2 µM.
Regarding `COC(=O)C1=C(C)NC(C)=C(C(=O)OCC(C)C)C1c1ccccc1[N+](=O)[O-]` (stereo not given), the GI50 is 3900 nM with T-47D breast; 13900 nM in the assay with HS 578T breast; 9200 nM in the assay with HT29 colon; 4.11 µM in the assay with TK-10 renal; 3550 nM in the assay on 786-0 renal; 4150 nM in the assay on SN12C renal. Besides, the GI50 in the assay with SNB-19 CNS was 8200 nM; in the assay on MALME-3M melanoma, 4470 nM; in the assay on SR leukemia it was 2530 nM; in the assay on SK-OV-3 ovarian it was 4.65 µM. Besides, the TGI in the assay with T-47D breast is 16.4 µM; with HS 578T breast, greater than 100 µM; in the assay on HT29 colon it was 22.9 µM; in the assay with TK-10 renal it was 13 µM; in the assay with 786-0 renal, 12.6 µM; with SN12C renal, 19.8 µM. For the same compound, the TGI in the assay on SNB-19 CNS was found to be 64.3 µM; with MALME-3M melanoma, 17.2 µM; in the assay with SR leukemia, 11.3 µM; in the assay with SK-OV-3 ovarian, 17.4 µM.
With `C#CCNCCN1C(=O)c2ccc3c4c(ccc(c24)C1=O)C(=O)N(CCNCC#C)C3=O`, the GI50 in the assay on T-47D breast is 4160 nM; in the assay with HS 578T breast, 8350 nM; in the assay with HT29 colon it was 1650 nM; in the assay on TK-10 renal it was 7.38 µM; with 786-0 renal, 6100 nM; in the assay on SN12C renal it was 2620 nM. The GI50 was 3560 nM in the assay with SNB-19 CNS, 903 nM in the assay with MALME-3M melanoma, 4530 nM in the assay on SR leukemia and 6.3 µM in the assay on SK-OV-3 ovarian. Moreover, the TGI in the assay on T-47D breast is 14.8 µM; in the assay with HS 578T breast, 29.2 µM; with HT29 colon it was 6.2 µM; in the assay with TK-10 renal, 23.8 µM; in the assay on 786-0 renal it was 26.5 µM; in the assay on SN12C renal, 9.32 µM. Further, the TGI with SNB-19 CNS was 10.6 µM; with MALME-3M melanoma it was 3.14 µM; in the assay on SR leukemia it was 29.8 µM; with SK-OV-3 ovarian, 22.6 µM.
With `O=C(Nc1ccc(Oc2cccc(F)c2)c(Cl)c1)c1cnccn1`, the GI50 in the assay on T-47D breast is 1330 nM; in the assay with HS 578T breast, 1190 nM; in the assay on HT29 colon, 234 nM; in the assay on TK-10 renal, 3.75 µM; in the assay with 786-0 renal, 3030 nM; in the assay on SN12C renal, 3600 nM. For the same compound, the GI50 in the assay with SNB-19 CNS was 2740 nM; in the assay with MALME-3M melanoma, 3030 nM; with SR leukemia, 242 nM; in the assay with SK-OV-3 ovarian, 10.8 µM. The TGI in the assay on T-47D breast, in the assay on HS 578T breast, with HT29 colon, in the assay with TK-10 renal, with 786-0 renal and in the assay on SN12C renal was greater than 50 µM throughout. Moreover, the TGI in the assay on SNB-19 CNS, with MALME-3M melanoma, in the assay with SR leukemia and in the assay on SK-OV-3 ovarian was greater than 50 µM in each case.
As to `CCOC(=O)c1cc2c(n1Cc1cc(OC)c(OC)c(OC)c1)-c1oncc1CCC2`, the GI50 with T-47D breast is 373 nM; with HS 578T breast, 343 nM; in the assay with HT29 colon it was 138 nM; with TK-10 renal, 64.9 µM; with 786-0 renal it was 583 nM; in the assay on SN12C renal, 628 nM. Also, the GI50 is 604 nM with SNB-19 CNS, 61 nM in the assay on MALME-3M melanoma, 46.4 nM in the assay on SR leukemia and 0.185 µM in the assay on SK-OV-3 ovarian. Besides, the TGI was 53.4 µM with T-47D breast; greater than 100 µM in the assay with HS 578T breast; 2.67 µM in the assay with HT29 colon; greater than 100 µM in the assay with TK-10 renal; greater than 35.9 µM in the assay on 786-0 renal; greater than 40.1 µM with SN12C renal. In addition, the TGI in the assay on SNB-19 CNS is greater than 100 µM; in the assay on MALME-3M melanoma it was greater than 52.3 µM; with SR leukemia, 5.5 µM; with SK-OV-3 ovarian it was 3.55 µM.
With `O1[As]2O[As]3O[As]1O[As](O2)O3`, the GI50 with T-47D breast is 474 nM; with HS 578T breast, 981 nM; in the assay on HT29 colon, 876 nM; in the assay on TK-10 renal, 2.31 µM; with 786-0 renal, 528 nM; with SN12C renal, 881 nM. Besides, the GI50 with SNB-19 CNS is 1650 nM; in the assay on MALME-3M melanoma it was 477 nM; with SR leukemia it was 295 nM; with SK-OV-3 ovarian, 2.8 µM. Besides, the TGI in the assay on T-47D breast was 12.6 µM; in the assay with HS 578T breast, greater than 42.5 µM; in the assay on HT29 colon, 4.67 µM; in the assay with TK-10 renal, 9.5 µM; in the assay on 786-0 renal, 1.82 µM; in the assay on SN12C renal it was 4.79 µM. For the same compound, the TGI in the assay on SNB-19 CNS came out at 4.44 µM; in the assay on MALME-3M melanoma it was 2.08 µM; with SR leukemia, 3.7 µM; in the assay with SK-OV-3 ovarian it was 7 µM.
